Assay results as given in article PMC13114161 (Antibiotics, 2026).
Where two headings read alike, the source gives them in different places.

How the values were obtained:
P. aeruginosa [1] = test system: P. aeruginosa; parameters: method as in PMID 35052908, PMID 35740123; conditions: against P. aeruginosa; cited from earlier work
P. aeruginosa ATCC 27853 [2] = experiment: Membrane polarization assay DiOC2(3); assay type: cell-based, Pseudomonas aeruginosa
Experimental: RND efflux pumps require an intact proton motive force across the inner membrane to mediate drug efflux. Accordingly, collapse of the membrane potential could indirectly disable efflux activity and result in apparent antibiotic potentiation. To determine whether TXA11114 dissipates the membrane potential of P. aeruginosa, membrane polarization was assessed using the fluorescent probe 3,3′-diethyloxacarbocyanine iodide (DiOC2(3)). DiOC2(3) accumulates in cells with polarized membranes, undergoing a concentration-dependent shift from green to red fluorescence due to dye stacking; membrane depolarization prevents this shift. […] CCCP and azithromycin were included as positive and negative controls, respectively. […] This discrepancy likely reflects a methodological limitation of the DiOC2(3) assay in Gram-negative bacteria. Specifically, EDTA treatment is required to transiently permeabilize the outer membrane to permit DiOC2(3) access to the cytoplasmic membrane (see Methods). While necessary for probe uptake, EDTA can sensitize cells to secondary perturbations and may exaggerate subtle fluorescence changes at supraphysiological compound concentrations.
P. aeruginosa membrane polarization assays were conducted as described previously using strain ATCC 27853. Briefly, mid-exponential phase (OD600 of 0.5) P. aeruginosa was pelleted by centrifugation at 3000× g for 10 min at room temperature. Cells were then resuspended in 1× PBS, treated with 10 mM EDTA for 5 min and then centrifuged at 300× g for 10 min to remove EDTA. EDTA-treated cells were pelleted and resuspended to an OD600 of 1.0 in assay resuspension buffer. A 6 mM DiOC2(3) stock in DMSO was added to cells for a final concentration of 30 µM. DiOC2(3)-loaded cells were then added to a 96-well black bottom microplate for a final volume of 200 µL. […] After 15 min incubation at 37 °C in dark, DiOC2(3) fluorescence was recorded using the SpectraMax iD5 spectrophotometer (Molecular Devices, San Jose, CA, USA) using 450 nm excitation. Red fluorescence intensity was recorded at 670 nm emission.

P. aeruginosa AR-0232 = experiment: Time-kill study; assay type: cell-based, Pseudomonas aeruginosa; conditions: levofloxacin 1X-MIC + TXA11114, by 24 h
Experimental: (§1) Time-kill studies were carried out as described previously with the following changes.

P. aeruginosa ATCC 27853 [3] = experiment: Time-kill study; assay type: cell-based, Pseudomonas aeruginosa; conditions: levofloxacin 1X-MIC + TXA11114
Experimental: as §1

Plasma stability = assay type: in vitro ADME; conditions: read-out: Plasma stability t1/2
Experimental: Plasma stability was assessed by incubating the compound in plasma at 37 °C and monitoring parent compound disappearance over time by LC-MS/MS. Half-life values were calculated assuming first-order kinetics.

[4] = Plasma protein binding (equilibrium dialysis); assay type: in vitro ADME
Experimental: Plasma protein binding was determined experimentally using equilibrium dialysis, with compound concentrations in plasma and buffer quantified by LC-MS/MS.

P. aeruginosa [5] = experiment: MIC potentiation of antimicrobial agents by EPIs; assay type: cell-based, Pseudomonas aeruginosa; conditions: 1/16 MIC
Experimental: In contrast, the activities of gentamicin and imipenem were unchanged in the presence of TXA11114 under the conditions tested. Although gentamicin can be transported by the MexXY efflux system, the absence of potentiation in this assay is not sufficient to draw conclusions regarding MexXY inhibition or overall efflux specificity.
MIC assays for potentiation of antimicrobial activity against P. aeruginosa were performed as described previously.

P. aeruginosa DA7232 = experiment: Levofloxacin accumulation assay; assay type: cell-based, Pseudomonas aeruginosa; conditions: vs vehicle-treated controls
Experimental: The bacterial culture samples were treated on ice for 15 min, centrifuged, washed with PBSMG (1X PBS, 1 mM MgCl2, 100 mM glucose) and then resuspended in 1 mL of glycine-HCl buffer (pH 3.0) overnight for cell lysis, followed by centrifugation. The fluorescence of 100 µL of supernatant was read at 490 nm following a 355 nm excitation in a SpectraMax iD5 spectrophotometer (Molecular Devices, San Jose, CA, USA).

SMILES	Lowest concentration enhancing activity of monobactams, fluoroquinolones, sulfonamides and tetracyclines (P. aeruginosa [1]) [µg/mL]	Concentrations with modest increase in apparent depolarization (P. aeruginosa ATCC 27853 [2]) [µg/mL]	Membrane depolarization (P. aeruginosa ATCC 27853 [2]; 0.01–20 µM)	Reduction in time-kill with levofloxacin (P. aeruginosa AR-0232) [log10]	Reduction in time-kill with levofloxacin (P. aeruginosa ATCC 27853 [3])	half-life (Plasma stability; dog) [min]	half-life (Plasma stability; mouse) [min]	half-life (Plasma stability; rat) [min]	fraction unbound ([4]; dog)	fraction unbound ([4]; human, across the four species tested, read-out: Plasma protein binding)	fraction unbound ([4]; human, read-out: Protein Binding)	fraction unbound ([4]; mouse)	fraction unbound ([4]; rat)	Lowest effective concentration for potentiation (P. aeruginosa [5]) [µg/mL]	Intracellular levofloxacin accumulation (P. aeruginosa DA7232)
NC[C@@H]1CN[C@H](CNC(=O)c2cc3ccc(-c4ccc(F)cc4)cc3[nH]2)C1 [TXA09155]	6.25														
NCC(F)C[C@@H](N)CNC(=O)c1cc2ccc(-c3ccc(F)cc3)cc2[nH]1 (stereo partly drawn) [TXA11114, N-((2R)-2,5-diamino-4-fluoropentyl)-6-(4-fluorophenyl)-1H-indole-2-carboxamide]		> 10	did not induce significant membrane depolarization	≥ 3	more modest but reproducible reductions	> 120	> 120	> 120	0.011	0.01 to 0.02	0.01	0.011	0.015	6.25	marked increase in intracellular levofloxacin accumulation
